Experiments:
[1] = system: acetic acid-induced writhing; assay: Analgesia, acetic acid-induced writhing technique in mice; format: in vivo, albino I.C.R. Swiss mice; conditions: for No. of writhes (x ± M.S.E.): Table B-I, control 112.1 ± 4.2; for No. of writhes (x ± M.S.E.) / Number of writhes (x ± M.S.E.): 30 min before acetic acid, counted during 20 min; for Number of writhes (x ± M.S.E.): Table B-II, control 99.6 ± 5.6; for analgesic activity: mice, i.p., compared with dextropropoxyphene
Procedure: The analgesic action was investigated in albino I.C.R. Swiss mice, using the acetic acid-induced writhing technique. Groups each of 10 mice were assembled.
The analgesics were injected intraperitoneally (i.p), and after 30 minutes 0.25 ml of a 1% solution of acetic acid was injected i.p. A control group received acetic acid only. The number of writhes made by each mouse was counted during the 20 minutes following the administration of acetic acid.

[2] = Acute toxicity in mice (i.p., Litchfield and Wilcoxon); format: in vivo, albino I.C.R. Swiss mice; conditions: mouse, in vivo, ip, albino I.C.R. Swiss mice, both sexes
Procedure: (§1) The acute toxicity studies were carried out in albino I.C.R. Swiss mice weighing 30 ± 2 g, of both sexes. The products were administered intraperitoneally (i.p). The acute toxicity was calculated according to the method of Litchfield and Wilcoxon.

[3] = system: albino I.C.R. Swiss mice; assay: as above; format: in vivo; conditions: mice
Procedure: as §1

[4] = dextropropoxyphene, 25 mg/kg i.p.

Structure (SMILES)	No. of writhes (x ± M.S.E.) [1, 4] [writhes]	Number of writhes (x ± M.S.E.) [1, 4] [writhes]	LD50 [2] [mg/kg]	No. of writhes (x ± M.S.E.) ([1]; Product I, 20 mg/kg i.p.) [writhes]	analgesic activity [1]	Acute toxicity compared with dextropropoxyphene [3]	Number of writhes (x ± M.S.E.) ([1]; Product II, 40 mg/kg i.p.) [writhes]
CCC(=O)O[C@](Cc1ccccc1)(c1ccccc1)[C@H](C)CN(C)C [Dextropropoxyphene, reference compound]	22.8 ± 4.74	50.2 ± 4.4	140				
COc1cc(CC2C(C)=C(C)CCN2C)cc(OC)c1OC (centres unmarked) [Product I, 1,3,4-trimethyl-2-(3,4,5-trimethoxybenzyl)-1,2,5,6-tetrahydropyridine]			154	74.5 ± 4.84	has analgesic activity but less than that of dextropropoxyphene	less toxic than dextropropoxyphene	
COc1cc(C(O)c2nccc(C)c2C)cc(OC)c1OC (centres unmarked) [Product II, 3,4,5-trimethoxyphenyl-(3,4-dimethyl-2-pyridyl)carbinol]			292		high analgesic activity	less toxic than dextropropoxyphene	29 ± 7.3

— patent publication US4000283A, “Compound 3,4,5-trimethoxyphenyl-(3,4-dimethyl-2-pyridyl)-carbonyl” (priority 1974, dated 1976)
